{"source": "patent US12522602B2", "about": "“Derivatives having 2,3-dihydro-1H-indene or 2,3-dihydrobenzofuran moiety or pharmaceutically acceptable salt thereof and pharmaceutical compositions comprising the same” (YUHAN CORPORATION, priority 2019, dated 2026)", "data": [{"tested_on": "GM1 production in Jurkat cells", "assay": "cells", "assay_type": "cell-based", "details": "Homo sapiens, Jurkat, 72 h", "units": {"IC50": "nM"}, "values": [{"smiles": "CC1(C)Cc2ccc(-c3ccc(F)cc3)cc2C1NC(=O)O[C@@H]1CN2CCC1CC2", "note": "(stereo partly drawn) [Example 49, (S)-quinuclidin-3-yl (6-(4-fluorophenyl)-2,2-dimethyl-2,3-dihydro-1H-inden-1-yl)carbamate]", "IC50": 61.4}, {"smiles": "COc1cccc(OC)c1-c1cc2c(cc1F)C(NC(=O)O[C@@H]1CN3CCC1CC3)C(C)(C)C2", "note": "(stereo partly drawn) [Example 383, (S)-quinuclidin-3-yl (5-(2,6-dimethoxyphenyl)-6-fluoro-2,2-dimethyl-2,3-dihydro-1H-inden-1-yl)carbamate]", "IC50": 123}, {"smiles": "O=C(NC1CCc2cc(-c3ccc(Cl)cc3)ccc21)O[C@@H]1CN2CCC1CC2", "note": "(stereo partly drawn) [Example 2, (S)-quinuclidin-3-yl (5-(4-chlorophenyl)-2,3-dihydro-1H-inden-1-yl)carbamate]", "IC50": 202}, {"smiles": "CCCCOc1ccc(-c2cc3c(cc2OC)C(NC(=O)O[C@@H]2CN4CCC2CC4)C(C)(C)C3)cc1", "note": "(stereo partly drawn) [Example 324, (S)-quinuclidin-3-yl (5-(4-butoxyphenyl)-6-methoxy-2,2-dimethyl-2,3-dihydro-1H-inden-1-yl)carbamate]", "IC50": 5.8}, {"smiles": "CC(C)Oc1ccc(-c2ccc3c(c2)CC(C)(C)C3NC(=O)O[C@@H]2CN3CCC2CC3)cn1", "note": "(stereo partly drawn) [Example 196, (S)-quinuclidin-3-yl (5-(6-isopropoxypyridin-3-yl)-2,2-dimethyl-2,3-dihydro-1H-inden-1-yl)carbamate]", "IC50": 23.2}, {"smiles": "COc1ccc(Cl)c(-c2ccc3c(c2)CC(C)(C)C3NC(=O)O[C@@H]2CN3CCC2CC3)c1", "note": "(stereo partly drawn) [Example 121, (S)-quinuclidin-3-yl (5-(2-chloro-5-methoxyphenyl)-2,2-dimethyl-2,3-dihydro-1H-inden-1-yl)carbamate]", "IC50": 4.7}, {"smiles": "CC1(C)Cc2cc(-c3cncc4ccccc34)ccc2C1NC(=O)O[C@@H]1CN2CCC1CC2", "note": "(stereo partly drawn) [Example 142, (S)-quinuclidin-3-yl (5-(isoquinolin-4-yl)-2,2-dimethyl-2,3-dihydro-1H-inden-1-yl)carbamate]", "IC50": 20.5}, {"smiles": "CC(C)(C)OCc1ccc(-c2ccc3c(c2)CC(C)(C)C3NC(=O)O[C@@H]2CN3CCC2CC3)cc1", "note": "(stereo partly drawn) [Example 181, (S)-quinuclidin-3-yl (5-(4-(tert-butoxymethyl)phenyl)-2,2-dimethyl-2,3-dihydro-1H-inden-1-yl)carbamate]", "IC50": 5.5}, {"smiles": "O=C(NC1CCc2cc(-c3cccc(Cl)c3)ccc21)O[C@@H]1CN2CCC1CC2", "note": "(stereo partly drawn) [Example 6, (S)-quinuclidin-3-yl (5-(3-chlorophenyl)-2,3-dihydro-1H-inden-1-yl)carbamate]", "IC50": 39.4}, {"smiles": "CCOc1ccc(Cl)cc1-c1ccc2c(c1)CC(C)(C)C2NC(=O)O[C@@H]1CN2CCC1CC2", "note": "(stereo partly drawn) [Example 212, (S)-quinuclidin-3-yl (5-(5-chloro-2-ethoxyphenyl)-2,2-dimethyl-2,3-dihydro-1H-inden-1-yl)carbamate]", "IC50": 19.1}, {"smiles": "COc1cc(OC)cc(-c2cc3c(cc2F)C(NC(=O)O[C@@H]2CN4CCC2CC4)C(C)(C)C3)c1", "note": "(stereo partly drawn) [Example 384, (S)-quinuclidin-3-yl (5-(3,5-dimethoxyphenyl)-6-fluoro-2,2-dimethyl-2,3-dihydro-1H-inden-1-yl)carbamate]", "IC50": 83.2}, {"smiles": "CC1(C)Cc2cc(-c3cccc(C(F)F)c3)ccc2C1NC(=O)O[C@@H]1CN2CCC1CC2", "note": "(stereo partly drawn) [Example 155, (S)-quinuclidin-3-yl (5-(3-(difluoromethyl)phenyl)-2,2-dimethyl-2,3-dihydro-1H-inden-1-yl)carbamate]", "IC50": 8.4}, {"smiles": "CC1(C)Cc2cc(-c3ccc(OC(F)F)cc3)ccc2C1NC(=O)O[C@@H]1CN2CCC1CC2", "note": "(stereo partly drawn) [Example 86, (S)-quinuclidin-3-yl (5-(4-(difluoromethoxy)phenyl)-2,2-dimethyl-2,3-dihydro-1H-inden-1-yl)carbamate]", "IC50": 13.8}, {"smiles": "CCCc1ccc(-c2ccc3c(c2)CC(CC)(CC)C3NC(=O)O[C@@H]2CN3CCC2CC3)cc1", "note": "(stereo partly drawn) [Example 278, (S)-quinuclidin-3-yl (2,2-diethyl-5-(4-propylphenyl)-2,3-dihydro-1H-inden-1-yl)carbamate]", "IC50": 6}, {"smiles": "CC1(C)Cc2cc(-c3cccc4ccncc34)ccc2C1NC(=O)O[C@@H]1CN2CCC1CC2", "note": "(stereo partly drawn) [Example 140, (S)-quinuclidin-3-yl (5-(isoquinolin-8-yl)-2,2-dimethyl-2,3-dihydro-1H-inden-1-yl)carbamate]", "IC50": 10.5}, {"smiles": "COCOc1cccc(-c2ccc3c(c2)CC2(CC2)C3NC(=O)O[C@@H]2CN3CCC2CC3)c1", "note": "(stereo partly drawn) [Example 398, (S)-quinuclidin-3-yl (5′-(3-(methoxymethoxy)phenyl)-1′,3′-dihydrospiro[cyclopropane-1,2′-inden]-1′-yl)carbamate]", "IC50": 36.6}, {"smiles": "CC1(C)Oc2ccc(-c3cccc(F)c3)cc2C1NC(=O)O[C@@H]1CN2CCC1CC2", "note": "(stereo partly drawn) [Example 406, (S)-quinuclidin-3-yl (5-(3-fluorophenyl)-2,2-dimethyl-2,3-dihydrobenzofuran-3-yl)carbamate]", "IC50": 120}, {"smiles": "CC1(C)Cc2cc(-c3cc4ccccc4s3)ccc2C1NC(=O)O[C@@H]1CN2CCC1CC2", "note": "(stereo partly drawn) [Example 186, (S)-quinuclidin-3-yl (5-(benzo[b]thiophen-2-yl)-2,2-dimethyl-2,3-dihydro-1H-inden-1-yl)carbamate]", "IC50": 82.6}, {"smiles": "CCOc1ccc(-c2ccc3c(c2)CC(C)(C)C3NC(=O)O[C@@H]2CN3CCC2CC3)c(C)c1", "note": "(stereo partly drawn) [Example 206, (S)-quinuclidin-3-yl (5-(4-ethoxy-2-methylphenyl)-2,2-dimethyl-2,3-dihydro-1H-inden-1-yl)carbamate]", "IC50": 14}, {"smiles": "CN1CCOc2cc(-c3ccc4c(c3)CC(C)(C)C4NC(=O)O[C@@H]3CN4CCC3CC4)ccc21", "note": "(stereo partly drawn) [Example 120, (S)-quinuclidin-3-yl (2,2-dimethyl-5-(4-methyl-3,4-dihydro-2H-benzo[b][1,4]oxazin-7-yl)-2,3-dihydro-1H-inden-1-yl)carbamate]", "IC50": 28.4}, {"smiles": "CCC1(CC)Cc2cc(-c3ccc(OC)cc3F)ccc2C1NC(=O)O[C@@H]1CN2CCC1CC2", "note": "(stereo partly drawn) [Example 310, (S)-quinuclidin-3-yl (2,2-diethyl-5-(2-fluoro-4-methoxyphenyl)-2,3-dihydro-1H-inden-1-yl)carbamate]", "IC50": 16.3}, {"smiles": "CCCCOc1ccc(-c2cc3c(cc2F)C(NC(=O)O[C@@H]2CN4CCC2CC4)C(C)(C)C3)cc1", "note": "(stereo partly drawn) [Example 361, (S)-quinuclidin-3-yl (5-(4-butoxyphenyl)-6-fluoro-2,2-dimethyl-2,3-dihydro-1H-inden-1-yl)carbamate]", "IC50": 2.1}, {"smiles": "CC1(C)Oc2cc(-c3cccc(Cl)c3)ccc2C1NC(=O)O[C@@H]1CN2CCC1CC2", "note": "(stereo partly drawn) [Example 408, (S)-quinuclidin-3-yl (6-(3-chlorophenyl)-2,2-dimethyl-2,3-dihydrobenzofuran-3-yl)carbamate]", "IC50": 15.8}, {"smiles": "CC1(C)Cc2ccc(-c3ccccc3Cl)cc2C1NC(=O)O[C@@H]1CN2CCC1CC2", "note": "(stereo partly drawn) [Example 58, (S)-quinuclidin-3-yl (6-(2-chlorophenyl)-2,2-dimethyl-2,3-dihydro-1H-inden-1-yl)carbamate]", "IC50": 87.8}, {"smiles": "COc1ccc(-c2cc3c(cc2F)C(NC(=O)O[C@@H]2CN4CCC2CC4)C(C)(C)C3)cc1", "note": "(stereo partly drawn) [Example 355, (S)-quinuclidin-3-yl (6-fluoro-5-(4-methoxyphenyl)-2,2-dimethyl-2,3-dihydro-1H-inden-1-yl)carbamate]", "IC50": 62.8}, {"smiles": "COCc1ccc(-c2ccc3c(c2)CC(C)(C)C3NC(=O)O[C@@H]2CN3CCC2CC3)cc1", "note": "(stereo partly drawn) [Example 149, (S)-quinuclidin-3-yl (5-(4-(methoxymethyl)phenyl)-2,2-dimethyl-2,3-dihydro-1H-inden-1-yl)carbamate]", "IC50": 27.6}, {"smiles": "CCCOc1ccc(-c2ccc3c(c2)CC(C)(C)C3NC(=O)O[C@@H]2CN3CCC2CC3)cc1F", "note": "(stereo partly drawn) [Example 216, (S)-quinuclidin-3-yl (5-(3-fluoro-4-propoxyphenyl)-2,2-dimethyl-2,3-dihydro-1H-inden-1-yl)carbamate]", "IC50": 28.7}, {"smiles": "Cc1ccc(-c2ccc3c(c2)CC(C)(C)C3NC(=O)O[C@@H]2CN3CCC2CC3)cc1", "note": "(stereo partly drawn) [Example 85, (S)-quinuclidin-3-yl (2,2-dimethyl-5-(p-tolyl)-2,3-dihydro-1H-inden-1-yl)carbamate]", "IC50": 11.6}, {"smiles": "CC1(C)Cc2ccc(-c3ccc(Cl)c(Cl)c3)cc2C1NC(=O)O[C@@H]1CN2CCC1CC2", "note": "(stereo partly drawn) [Example 70, (S)-quinuclidin-3-yl (6-(3,4-dichlorophenyl)-2,2-dimethyl-2,3-dihydro-1H-inden-1-yl)carbamate]", "IC50": 70.9}, {"smiles": "CC1(C)Oc2cc(-c3cccc(F)c3)ccc2C1NC(=O)O[C@@H]1CN2CCC1CC2", "note": "(stereo partly drawn) [Example 407, (S)-quinuclidin-3-yl (6-(3-fluorophenyl)-2,2-dimethyl-2,3-dihydrobenzofuran-3-yl)carbamate]", "IC50": 44.4}, {"smiles": "Cc1ccc(F)c(-c2ccc3c(c2)CC(C)(C)C3NC(=O)O[C@@H]2CN3CCC2CC3)c1", "note": "(stereo partly drawn) [Example 211, (S)-quinuclidin-3-yl (5-(2-fluoro-5-methylphenyl)-2,2-dimethyl-2,3-dihydro-1H-inden-1-yl)carbamate]", "IC50": 13.2}, {"smiles": "Cc1cc(-c2ccc3c(c2)CC(C)(C)C3NC(=O)O[C@@H]2CN3CCC2CC3)cc(C(C)(C)C)c1", "note": "(stereo partly drawn) [Example 240, (S)-quinuclidin-3-yl (5-(3-(tert-butyl)-5-methylphenyl)-2,2-dimethyl-2,3-dihydro-1H-inden-1-yl)carbamate]", "IC50": 51.3}, {"smiles": "CN(C)c1cc(-c2ccc3c(c2)CC(C)(C)C3NC(=O)O[C@@H]2CN3CCC2CC3)ccc1F", "note": "(stereo partly drawn) [Example 129, (S)-quinuclidin-3-yl (5-(3-(dimethylamino)-4-fluorophenyl)-2,2-dimethyl-2,3-dihydro-1H-inden-1-yl)carbamate]", "IC50": 36.8}, {"smiles": "O=C(NC1CCc2cc(-c3ccc(F)cc3F)ccc21)O[C@@H]1CN2CCC1CC2", "note": "(stereo partly drawn) [Example 16, (S)-quinuclidin-3-yl (5-(2,4-difluorophenyl)-2,3-dihydro-1H-inden-1-yl)carbamate]", "IC50": 56.1}, {"smiles": "O=C(NC1CCc2cc(-c3cc(F)cc(F)c3)ccc21)O[C@@H]1CN2CCC1CC2", "note": "(stereo partly drawn) [Example 19, (S)-quinuclidin-3-yl (5-(3,5-difluorophenyl)-2,3-dihydro-1H-inden-1-yl)carbamate]", "IC50": 20.3}, {"smiles": "COc1cccc(-c2cc3c(cc2F)C(NC(=O)O[C@@H]2CN4CCC2CC4)C(C)(C)C3)c1", "note": "(stereo partly drawn) [Example 375, (S)-quinuclidin-3-yl (6-fluoro-5-(3-methoxyphenyl)-2,2-dimethyl-2,3-dihydro-1H-inden-1-yl)carbamate]", "IC50": 23}]}]}
